Test results taken from US12576169B2, “Silicon-fluoride acceptor substituted radiopharmaceuticals and precursors thereof” (Technische Universität München, priority 2019, dated 2026).
Like-named read-outs stand apart in the source and are kept apart here. *1 amine or outer side, *2 acyl side, *3 side chain or, on linkers, in order; H or OH if unused. Where a SMILES comes first, the peptide text is derived from it. Side-chain parts run from the residue outwards. [ ]: non-standard residue; d: D form. The star is where a group is joined. X1 = O=C(O)CC[C@H](NC(=O)N[C@@H](CCC(=O)N[C@H](CCCN*)C(=O)O)C(=O)O)C(=O)O; Benzoyl(4-SiFtBu2) = CC(C)(C)[Si](F)(c1ccc(C(=O)*)cc1)C(C)(C)C; dCit = NC(=O)NCCC[C@@H](N)C(=O)O; Suc = O=C(CCC(=O)[*:2])[*:1]; dOrn = NCCC[C@@H](N)C(=O)O; dDap = NC[C@@H](N)C(=O)O

Tests used:
[1] = Wangler et al. 2010; cited from earlier work
[2] = radiolabeled established inhibitors; literature; cited from earlier work
PSMA [3] = target: T1, PSMA (Homo sapiens, UniProt Q04609); settings: PSMA binding affinity; literature; cited from earlier work
T1 sequence (Q04609 whole entry): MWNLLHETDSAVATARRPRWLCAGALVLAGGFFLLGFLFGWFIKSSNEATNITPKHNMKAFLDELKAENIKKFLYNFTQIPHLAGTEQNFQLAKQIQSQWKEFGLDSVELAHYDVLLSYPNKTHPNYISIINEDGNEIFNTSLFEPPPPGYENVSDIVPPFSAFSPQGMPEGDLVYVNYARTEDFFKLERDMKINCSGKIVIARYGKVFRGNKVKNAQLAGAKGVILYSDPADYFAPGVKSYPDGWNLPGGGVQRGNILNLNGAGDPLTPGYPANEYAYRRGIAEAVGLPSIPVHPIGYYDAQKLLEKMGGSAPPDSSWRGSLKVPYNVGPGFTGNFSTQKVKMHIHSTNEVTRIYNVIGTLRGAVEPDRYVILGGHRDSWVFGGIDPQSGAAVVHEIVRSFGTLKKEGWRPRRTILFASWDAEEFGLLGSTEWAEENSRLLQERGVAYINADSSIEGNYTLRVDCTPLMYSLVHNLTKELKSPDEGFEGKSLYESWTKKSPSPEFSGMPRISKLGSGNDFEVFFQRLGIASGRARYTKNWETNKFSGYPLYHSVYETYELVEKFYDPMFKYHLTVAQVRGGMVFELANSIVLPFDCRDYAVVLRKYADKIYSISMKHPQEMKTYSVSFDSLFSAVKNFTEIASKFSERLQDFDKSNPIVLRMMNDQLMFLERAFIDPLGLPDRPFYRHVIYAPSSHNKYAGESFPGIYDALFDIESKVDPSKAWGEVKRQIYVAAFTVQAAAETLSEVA

PSMA [4] = target: T1, PSMA; settings: after 1 h; literature; cited from earlier work
HSA = HSA (Homo sapiens, UniProt P02768); settings: cited from earlier work; for Lit. HSA binding: literature values (Yamazaki, Kanaoka 2004); for Log K HSA: logarithmic K of HSA binding literature values
Sequence of HSA (P02768 25-609): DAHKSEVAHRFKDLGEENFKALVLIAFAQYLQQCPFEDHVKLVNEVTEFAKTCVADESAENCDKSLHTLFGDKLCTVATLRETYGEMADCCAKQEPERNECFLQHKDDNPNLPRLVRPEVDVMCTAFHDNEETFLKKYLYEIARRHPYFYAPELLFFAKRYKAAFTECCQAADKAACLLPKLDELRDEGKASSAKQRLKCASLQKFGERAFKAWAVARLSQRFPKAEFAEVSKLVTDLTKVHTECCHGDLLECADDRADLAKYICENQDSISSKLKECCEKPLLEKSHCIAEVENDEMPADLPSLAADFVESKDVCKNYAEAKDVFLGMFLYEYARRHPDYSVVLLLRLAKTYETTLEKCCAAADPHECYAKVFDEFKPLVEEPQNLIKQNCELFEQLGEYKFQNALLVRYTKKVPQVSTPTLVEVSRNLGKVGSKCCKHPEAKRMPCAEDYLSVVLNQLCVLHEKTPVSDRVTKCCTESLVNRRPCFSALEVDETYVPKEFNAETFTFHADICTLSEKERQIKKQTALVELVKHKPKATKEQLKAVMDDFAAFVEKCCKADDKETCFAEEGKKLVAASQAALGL

[5] = n-Octanol-PBS partition coefficient (logD7.4); assay type: physicochemical; settings: 18F-labeled ligand; n-octanol/PBS pH=7.4; mean ± SD (n = 5)
Experimental: Approx. 0.5 MBq of the ^18F-labeled SiFA-PSMA ligand were added into a test tube containing n-octanol (500 μL) and PBS (500 μL, pH=7.4). After vigorously shaking the two-phase mixture for 3 min at rt, the test tube was centrifuged at 9.000 rpm for 5 min to achieve quantitative phase separation. Finally, 150 μL of each layer were pipetted off and measured for activity using a gamma counter. After repeating the experiment for at least five times, the n-octanol-PBS partition coefficient log D7.4 was calculated according to following formula.

LNCaP cells = test: Internalization of 18F-labeled ligands into LNCaP cells; assay type: cell-based, human; settings: internalized activity at 1 h in % of reference [125I]XII; c = 0.5 nM; LNCaP cells (125.000 cells/well); 37° C., DMEM/F-12 add. 5% BSA; corrected for non-specific binding (10 μm PMPA); mean ± SD (n = 3)
Experimental: LNCaP cells were grown in DMEM/F-12 (add. 10% FCS, v/v) and maintained at 37° C. in a humidified 5% CO2 atmosphere. […] Subsequent to the removal of the culture medium, cells were washed with DMEM-F12 (add. 5% BSA, v/v, 500 μL) and left to equilibrate in DMEM-F12 (add. 5% BSA, v/v, 200 μL) at 37° C. for 15 min. Each well was treated with either DMEM-F12 (add. 5% BSA, v/v, 25 μL) or a 2-(phosphonomethyl)-pentandioic acid (PMPA) solution (100 μM in PBS, 25 μL) for blockade. Afterwards, the ^18F-labeled SiFA-PSMA ligand (5 nM in PBS, 25 μL) was added and the cells were incubated for 1 h at 37° C. The experiment was terminated by placing the 24-well plate on ice for 3 min and removal of the assay medium. Each well was rinsed with HBSS (4° C., 250 μL) and the fractions were combined with the previous assay medium, representing the amount of unbound radioligand. For removal of surface bound activity, LNCaP cells were incubated with PMPA solution (10 μM in PBS, 4° C., 250 μL) for 5 min and rinsed again with PBS (250 μL, 4° C.). The internalized activity was determined by incubation of LNCaP cells with 1 M aq. NaOH (250 μL) for at least 10 min and combination with the fraction of a subsequent wash step with 1 M aq. NaOH (200 μL). Each experiment (control and blockade) was performed in triplicate. […] All internalization studies were accompanied by reference studies using the reference compound XII (2 nM in HBSS add. 1% BSA, v/v), which were performed analogously. Data were corrected for non-specific internalization and normalized to the specific-internalization observed for the radioiodinated reference compound.

[6] = target: T2, human serum albumin (HSA) (Homo sapiens, UniProt P02768); test: Binding to HSA on a Chiralpak HSA column; assay type: in vitro ADME; settings: calibration with nine reference substances
T2 construct: purchased H13H-2433
T2 sequence (P02768 25-609): as above
Experimental: For the determination of human serum albumin (HSA) binding, a Chiralpak HSA column (50×3 mm, 5 μm, H13H-2433) was used at a constant flow rate of 0.5 mL/min. The mobile phase composed of a 50 mM NH4OAc solution in water with pH=7 (solvent C) and isopropanol (solvent D) was freshly prepared for each experiment and used only once. The reference substances (Table 1) as well as the analyzed SiFA-PSMA ligands were dissolved in a mixture of solvent C/solvent D (1:1, v/v, 0.5 mg/mL) and eluted from the HSA column (0-3 min: 100% C, 3-20 min: 20% D in C, λ=254 nm). The column was kept at rt and each run was stopped after detection of the signal to reduce the acquisition time. The nine reference substances display an HSA binding range of 13% to 99% and were injected consecutively in order to establish a sigmoidal calibration curve with the software OriginPro 2018b (FIG. 1).

PSMA [7] = target: T1, PSMA; test: IC50 determination: PSMA binding affinity, competition with [125I]XII on LNCaP cells
Experimental: LNCaP cells were grown in Dulbecco's Modified Eagle Medium/Nutrient Mixture F-12 (DMEM/F-12, add. 10% fetal calf serum (FCS), v/v) and maintained at 37° C. in a humidified 5% CO2 atmosphere. […] After removal of the culture medium, LNCaP cells were treated with HBSS (add. 1% BSA, v/v, 4° C., 500 μL) and subsequently left 15 min on ice for equilibration in HBSS (add. 1% BSA, v/v, 4° C., 200 μL). […] For the control series, HBSS (add. 1% BSA, v/v, 25 μL) was used instead of the SiFA-PSMA ligand solution. Each concentration and the control were prepared in triplicate. After 1 h incubation on ice, the assay medium was removed and cells were washed with HBSS (200 μL, 4° C.). […] NaOH (200 μL) for at least 10 min and the resulting cell lysate was removed. The wells were treated again with 1 M aq. […] The experiment was repeated for at least three times and the IC50 value calculated using the GraphPad PRISM 8.0.2 software (Graphpad Software Inc., La Jolla, United States).

[8] = LNCaP cells (150.000 cells/well), reference [125I]XII c = 0.2 nM, 1 h, 4° C., HBSS add. 1% BSA, mean ± SD (n = 3)

| Compound | logD7.4 [5] | Internalization (LNCaP cells) [%] | Binding to HSA [6] [%] | IC50 (PSMA [7]; [8]) [nM] | further results |
| --- | --- | --- | --- | --- | --- |
| SiFA-Asn(AcNH-β-Glc)-Tyr^3-octreotate | – | – | – | – | log P(ow) [1]: 1.23 |
| SiFA-Asn(AcNH-β-Glc)-PEG-Tyr^3-octreotate | – | – | – | – | log P(ow) [1]: 0.96 |
| O=C(O)CC[C@H](NC(=O)N[C@@H](CCCCNC(=O)[C@H](Cc1ccc2ccccc2c1)NC(=O)[C@H]1CC[C@H](CNC(=O)CN2CCN(CC(=O)O)CCN(CC(=O)O)CCN(CC(=O)O)CC2)CC1)C(=O)O)C(=O)O [[^68Ga]PSMA-617, PSMA-617, metal not drawn] | – | – | – | – | logP(o/w) [2]: −4.30 ± 0.10 |
| PSMA I&T [[^natGa/^68Ga]PSMA I&T] | – | – | – | – | logP(o/w) [2]: −4.3 ± 0.3; IC50 (PSMA [3]): 9.3 ± 3.3 nM; Internalization (1 h) (PSMA [4]): 59.2 ± 1.7 |
| Nc1ccccc1 [Aniline] | – | – | – | – | Lit. HSA binding (HSA): 14.06%; Log K HSA (HSA): −0.7912 |
| O=C(O)CC[C@H](NC(=O)N[C@@H](CCCCNC(=O)c1ccc([18F])nc1)C(=O)O)C(=O)O [[^natF/^18F]DCFPyI, DCFPyI] | – | – | – | – | logP(o/w) [2]: −3.4 |
| COc1ccc(Cl)cc1C(=O)NCCc1ccc(S(=O)(=O)NC(=O)NC2CCCCC2)cc1 [Glibenclamide] | – | – | – | – | Lit. HSA binding (HSA): 99.00%; Log K HSA (HSA): 1.695 |
| Oc1ccccc1 [Phenol] | – | – | – | – | Lit. HSA binding (HSA): 20.69%; Log K HSA (HSA): −0.589 |
| OCc1ccccc1 [Benzyl alcohol] | – | – | – | – | Lit. HSA binding (HSA): 13.15%; Log K HSA (HSA): −0.8248 |
| O=C([O-])CN(CCN(CC(=O)[O-])Cc1cc(CCC(=O)NCCCCCC(=O)NCCCC[C@H](NC(=O)N[C@@H](CCC(=O)O)C(=O)O)C(=O)O)ccc1[O-])Cc1cc(CCC(=O)O)ccc1[O-].[68Ga+3].[OH3+] [[^natGa/^68Ga]PSMA-11, PSMA-11] | – | – | – | – | logP(o/w) [2]: −4.1 ± 0.1; IC50 (PSMA [3]): 6.1 ± 0.8 nM; Internalization (1 h) (PSMA [4]): 91.1 ± 1.7 |
| CC(C)(C)[Si](F)(c1ccc(C(=O)NC[C@@H](NC(=O)[C@H](CCCCN)NC(=O)CC[C@H](NC(=O)N[C@@H](CCC(=O)O)C(=O)O)C(=O)O)C(=O)N[C@H](CCCCNC(=O)CCC(=O)NCCC[C@@H](NC(=O)CC[C@H](NC(=O)N[C@@H](CCC(=O)O)C(=O)O)C(=O)O)C(=O)O)C(=O)O)cc1)C(C)(C)C [SiFA-PSMA ligand 01 h] | −3.71 ± 0.16 | 142.95 ± 7.49 | 98.7 | 8.7 ± 0.6 | – |
| CC(C)(C)[Si](F)(c1ccc(C(=O)NC[C@@H](NC(=O)[C@@H](CN)NC(=O)CC[C@H](NC(=O)N[C@@H](CCC(=O)O)C(=O)O)C(=O)O)C(=O)N[C@H](CCCCNC(=O)CCC(=O)NCCC[C@@H](NC(=O)CC[C@H](NC(=O)N[C@@H](CCC(=O)O)C(=O)O)C(=O)O)C(=O)O)C(=O)O)cc1)C(C)(C)C [SiFA-PSMA ligand 01 e] | −3.96 ± 0.07 | 125.13 ± 1.14 | ≥99.0 | 9.2 ± 1.4 | – |
| CC(C)(C)[Si](F)(c1ccc(C(=O)NC[C@@H](NC(=O)[C@@H](CCCCN)NC(=O)CC[C@H](NC(=O)N[C@@H](CCC(=O)O)C(=O)O)C(=O)O)C(=O)N[C@H](CCCCNC(=O)CCC(=O)NCCC[C@@H](NC(=O)CC[C@H](NC(=O)N[C@@H](CCC(=O)O)C(=O)O)C(=O)O)C(=O)O)C(=O)O)cc1)C(C)(C)C [SiFA-PSMA ligand 01 g] | −3.71 ± 0.03 | 104.75 ± 4.37 | 98.9 | 8.7 ± 0.7 | – |
| C[C@H](O)[C@@H](NC(=O)CC[C@H](NC(=O)N[C@@H](CCC(=O)O)C(=O)O)C(=O)O)C(=O)N[C@H](CNC(=O)c1ccc([Si](F)(C(C)(C)C)C(C)(C)C)cc1)C(=O)N[C@H](CCCCNC(=O)CCC(=O)NCCC[C@@H](NC(=O)CC[C@H](NC(=O)N[C@@H](CCC(=O)O)C(=O)O)C(=O)O)C(=O)O)C(=O)O [SiFA-PSMA ligand 01 j] | −3.86 ± 0.07 | 120.83 ± 0.92 | ≥98.9 | 9.2 ± 1.2 | – |
| CC(C)(C)[Si](F)(c1ccc(C(=O)NC[C@@H](NC(=O)[C@@H](CCCNC(N)=O)NC(=O)[C@@H](CCC(=O)O)NC(=O)[C@H](N)CCC(=O)O)C(=O)N[C@H](CCCCNC(=O)CCC(=O)NCCC[C@@H](NC(=O)CC[C@H](NC(=O)N[C@@H](CCC(=O)O)C(=O)O)C(=O)O)C(=O)O)C(=O)O)cc1)C(C)(C)C [SiFA-PSMA ligand 03 c] (H-[dE][dE][dCit][dDap](Benzoyl(4-SiFtBu2))[dK]([Suc-X1])-OH) | −3.31 ± 0.02 | 87.55 ± 2.28 | 98.6 | 11.7 ± 1.5 | – |
| CC(C)(C)[Si](F)(c1ccc(C(=O)NC[C@@H](NC(=O)[C@@H](CCCN)NC(=O)[C@@H](CCC(=O)O)NC(=O)[C@H](N)CCC(=O)O)C(=O)N[C@H](CCCCNC(=O)CCC(=O)NCCC[C@@H](NC(=O)CC[C@H](NC(=O)N[C@@H](CCC(=O)O)C(=O)O)C(=O)O)C(=O)O)C(=O)O)cc1)C(C)(C)C [SiFA-PSMA ligand 03 e] (H-[dE][dE][dOrn][dDap](Benzoyl(4-SiFtBu2))[dK]([Suc-X1])-OH) | −3.40 ± 0.17 | 111.98 ± 3.90 | 97.5 | 8.5 ± 1.2 | – |
| CC(C)(C)[Si](F)(c1ccc(C(=O)NC[C@@H](NC(=O)[C@H](N)CNC(=O)[C@@H](CCC(=O)O)NC(=O)[C@H](N)CCC(=O)O)C(=O)N[C@H](CCCCNC(=O)CCC(=O)NCCC[C@@H](NC(=O)CC[C@H](NC(=O)N[C@@H](CCC(=O)O)C(=O)O)C(=O)O)C(=O)O)C(=O)O)cc1)C(C)(C)C [SiFA-PSMA ligand 04] | −3.33 ± 0.11 | 124.49 ± 2.61 | 97.9 | – | IC50 (PSMA [7]): 12.2 ± 1.9 nM |
| PSMA-1007 [[^natF/^18F]PSMA-1007] | – | – | – | – | logP(o/w) [2]: −1.6; IC50 (PSMA [3]): 4.2 ± 0.5 nM |
| CC(C)(C)[Si](F)(c1ccc(C(=O)NC[C@@H](NC(=O)[C@@H](CCCNC(N)=O)NC(=O)CC[C@H](NC(=O)N[C@@H](CCC(=O)O)C(=O)O)C(=O)O)C(=O)N[C@H](CCCCNC(=O)CCC(=O)NCCC[C@@H](NC(=O)CC[C@H](NC(=O)N[C@@H](CCC(=O)O)C(=O)O)C(=O)O)C(=O)O)C(=O)O)cc1)C(C)(C)C [SiFA-PSMA ligand 01 d] | −3.28 ± 0.03 | 95.68 ± 9.86 | ≥98.9 | 13 ± 1.2 | – |
